The source of these data is publication PMC8742647 (Clinical and Translational Science, 2021).

Like-named read-outs stand apart in the source and are kept apart here. A value given as a limit tells only on which side of the number the result lay.

Data set [1] in a line: fraction unbound in plasma, equilibrium dialysis. It counts as in vitro ADME, humans. Particulars: fraction unbound in human plasma. Background: Equilibrium dialysis compares concentrations on both sides of a semipermeable membrane.
A short description of data set [2]: total clearance after intravenous administration to PXB-mice. It counts as in vivo, PXB‐mice (chimeric mice with humanized livers). The conditions noted are these: intravenous cassette dose 0.1 mg/kg, N = 3, noncompartmental analysis.
Data set [3] in a line: total clearance after intravenous administration to rats. It counts as in vivo, Sprague–Dawley rats. Particulars: intravenous cassette dose 0.1 mg/kg, N = 3.
A short description of data set [4]: total clearance after intravenous administration to monkeys. It counts as in vivo, cynomolgus monkeys. The conditions noted are these: intravenous cassette dose 0.1 mg/kg, N = 3.
Data set [5] is described as follows: prediction of CLt,human by single-species allometric scaling from PXB-mice. Details: species or system humans. The conditions noted are these: for Fold error (predicted/observed), PXB‐SSS: predicted/observed CLt,human; for Predicted CLt,human, PXB‐SSS: scaled from CLt in PXB-mice, exponent 0.75.
Data set [6] can be described thus: prediction of CLt,human by physiologically based scaling using PXB-mice. Further details: species or system humans. Particulars: for Predicted CLt,human, PXB‐PBS: from CLt in PXB-mice, dispersion model, CLint per hepatocyte assumed equal; for Fold error (predicted/observed), PXB‐PBS: predicted/observed CLt,human.
For data set [7] the following is noted: blood‐to‐plasma concentration ratio, ref Table S1; cited from earlier work.
For data set [8] the following is noted: fraction unbound in rat plasma; ref Table S1; cited from earlier work.
For data set [9] the following is noted: ref Table S1; cited from earlier work.
The conditions of data set [10]: humans; ref Table S1; cited from earlier work.
Data set [11] concerns cryopreserved human hepatocytes. In words: in vitro metabolic stability assay using cryopreserved human hepatocytes.
Data set [12] can be described thus: prediction of CLt,human by multispecies allometric scaling, rule of exponent. The conditions noted are these: for Predicted CLt,human, ROE: from CLt in rats, monkeys and dogs; for Fold error (predicted/observed), ROE: predicted/observed CLt,human.
For data set [13] the following is noted: for Predicted CLt,human, FCIM: from CLt in rats, monkeys and dogs and fu,p ratio rat/human; for Fold error (predicted/observed), FCIM: predicted/observed CLt,human.
Data set [14] can be described thus: prediction of CLt,human by in vitro–in vivo extrapolation. Particulars: for Predicted CLt,human, IVIVE: from in vitro CLint per human hepatocyte, dispersion model; for Fold error (predicted/observed), IVIVE: predicted/observed CLt,human. Details: species or system humans.
Data set [15] is described as follows: fraction unbound in plasma, equilibrium dialysis. It counts as in vitro ADME, Sprague–Dawley rat. The conditions noted are these: fraction unbound in rat plasma.
For data set [16] the following is noted: ref Table S1; cited from earlier work. The source holds these as a separate data set.

For `CN1C(C(=O)Nc2ccccn2)=C(O)c2sccc2S1(=O)=O` [Tenoxicam], the “f u,p, Humans” value in data set [1] was 0.015. Further, the “CLt, PXB‐mice” value in data set [2] came to 0.01727 L/h/kg. The “CLt, Rats” value in data set [3] was 0.0294 L/h/kg. Further, the “CLt, Monkeys” value in data set [4] is 0.00366 L/h/kg. In addition, in data set [5], the “Fold error (predicted/observed), PXB‐SSS” value is recorded as 1.29 and the “Predicted CLt,human, PXB‐SSS” value was 0.00234 L/h/kg. In data set [6], the “Predicted CLt,human, PXB‐PBS” value was 0.00264 L/h/kg and the “Fold error (predicted/observed), PXB‐PBS” value was 1.46. Also, in [7], the “R b, Humans” value is recorded as 0.67. Besides, the “f u,p, Rats” value in [8] was 0.030. The “CLt, Dogs” value in data set [9] was 0.00624 L/h/kg. In addition, the “Observed CLt,human” value in [10] is 0.0018 L/h/kg. For the same compound, in data set [11] (criterion for low‐CLint compounds: no significant turnover (<20%)), the “turnover during a 4‐h incubation in the human hepatocyte assay” value is listed as less than 20%. For the same compound, in data set [12], the “discrepancy between observed and predicted CLt,human, ROE approach” value is recorded as “more than 3 fold”; the “Predicted CLt,human, ROE” value is 0.00174 L/h/kg; the “Fold error (predicted/observed), ROE” value is on record as 0.98. Further, in [13], the “discrepancy between observed and predicted CLt,human, FCIM approach” value is listed as “more than 3 fold”; the “Predicted CLt,human, FCIM” value was 0.0051 L/h/kg; the “Fold error (predicted/observed), FCIM” value was 2.83.

Take `CN[C@@H]1C[C@H]2O[C@@](C)([C@@H]1OC)n1c3ccccc3c3c4c(c5c6ccccc6n2c5c31)C(=O)N[C@H]4O` [UCN−01, 7‐hydroxystaurosporine]: the “f u,p, Humans” value in [1] was determined as 0.003. Also, the “CLt, PXB‐mice” value in data set [2] amounted to 0.00221 L/h/kg. Further, the “CLt, Rats” value in [3] worked out at 4.642 L/h/kg. In addition, in data set [4], the “CLt, Monkeys” value was 0.202 L/h/kg. In [5], the “Fold error (predicted/observed), PXB‐SSS” value is 1.35 and the “Predicted CLt,human, PXB‐SSS” value is 0.0003 L/h/kg. Moreover, in [6], the “Predicted CLt,human, PXB‐PBS” value was 0.000336 L/h/kg and the “Fold error (predicted/observed), PXB‐PBS” value is recorded as 1.52. Moreover, in data set [14], the “Predicted CLt,human, IVIVE” value is 0.03712 L/h/kg and the “Fold error (predicted/observed), IVIVE” value is recorded as 167.20. In addition, the “f u,p, Rats” value in data set [8] is 0.0175. Further, in data set [9], the “CLt, Dogs” value is 0.6162 L/h/kg. Moreover, the “Observed CLt,human” value in data set [10] was 0.000222 L/h/kg. Further, the “% remaining after a 4‐h incubation” value in [11] (cryopreserved human hepatocytes, 0.5 million cells/ml, 0.1 or 1 µmol/l, 4 h) worked out at 4%. Besides, in [11] (in vitro, human hepatocytes, corrected with fraction unbound in hepatocytes and medium), the “CLint per hepatocyte, Humans” value amounted to 83.5 µl/min/1 × 10^6 cells. In [12], the “Predicted CLt,human, ROE” value was 0.09384 L/h/kg and the “Fold error (predicted/observed), ROE” value is on record as 422.70. Also, in data set [13], the “Predicted CLt,human, FCIM” value was 0.08259 L/h/kg and the “Fold error (predicted/observed), FCIM” value is reported as 372.03.

Take `CCNC(=O)OC1CCN(c2nncc3cc(OC)c(OC)cc23)CC1` [Carbazeran]: in data set [1], the “f u,p, Humans” value came out at 0.148. In addition, the “f u,p, Rats” value in data set [15] is reported as 0.169. For the same compound, the “CLt, PXB‐mice” value in data set [2] stood at 5.98 L/h/kg. The “CLt, Rats” value in [3] is 2.533 L/h/kg. For the same compound, in data set [5], the “Fold error (predicted/observed), PXB‐SSS” value is given as 0.34 and the “Predicted CLt,human, PXB‐SSS” value is 0.768 L/h/kg. In data set [6], the “Predicted CLt,human, PXB‐PBS” value was 0.984 L/h/kg and the “Fold error (predicted/observed), PXB‐PBS” value was 0.44. Moreover, in data set [14], the “Predicted CLt,human, IVIVE” value is 0.93 L/h/kg and the “Fold error (predicted/observed), IVIVE” value is listed as 0.41. In data set [16], the “CLt, Monkeys” value was 5.272 L/h/kg. For the same compound, the “CLt, Dogs” value in [9] is 0.69 L/h/kg. In addition, the “Observed CLt,human” value in data set [10] was 2.26 L/h/kg. Moreover, in [12], the “Predicted CLt,human, ROE” value is 0.516 L/h/kg and the “Fold error (predicted/observed), ROE” value is 0.23. Also, in data set [13], the “Predicted CLt,human, FCIM” value was 0.456 L/h/kg and the “Fold error (predicted/observed), FCIM” value is on record as 0.20.
